Laboratory results published in article PMC4669708 (Cell Death & Disease, 2015).

Tests used:
Test in all cases: c-ponatinib pulldown LC-MS/MS
Type in all cases: binding
ABL1 = ABL1 (Homo sapiens, UniProt P00519)
Summary of the method: (§1)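 Read-out: interaction P-value combining Mascot scores, Phenyx scores and spectral counts (Fisher's method), plus fold reduction of median spectral counts on free-compound competition. Proteins were enriched from 10 mg cell lysate on c-ponatinib beads, then trypsin-digested for LC-MS/MS.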

MAP4K4 = MAP4K4 (Homo sapiens, UniProt O95819)
Sequence of MAP4K4 (O95819 whole entry): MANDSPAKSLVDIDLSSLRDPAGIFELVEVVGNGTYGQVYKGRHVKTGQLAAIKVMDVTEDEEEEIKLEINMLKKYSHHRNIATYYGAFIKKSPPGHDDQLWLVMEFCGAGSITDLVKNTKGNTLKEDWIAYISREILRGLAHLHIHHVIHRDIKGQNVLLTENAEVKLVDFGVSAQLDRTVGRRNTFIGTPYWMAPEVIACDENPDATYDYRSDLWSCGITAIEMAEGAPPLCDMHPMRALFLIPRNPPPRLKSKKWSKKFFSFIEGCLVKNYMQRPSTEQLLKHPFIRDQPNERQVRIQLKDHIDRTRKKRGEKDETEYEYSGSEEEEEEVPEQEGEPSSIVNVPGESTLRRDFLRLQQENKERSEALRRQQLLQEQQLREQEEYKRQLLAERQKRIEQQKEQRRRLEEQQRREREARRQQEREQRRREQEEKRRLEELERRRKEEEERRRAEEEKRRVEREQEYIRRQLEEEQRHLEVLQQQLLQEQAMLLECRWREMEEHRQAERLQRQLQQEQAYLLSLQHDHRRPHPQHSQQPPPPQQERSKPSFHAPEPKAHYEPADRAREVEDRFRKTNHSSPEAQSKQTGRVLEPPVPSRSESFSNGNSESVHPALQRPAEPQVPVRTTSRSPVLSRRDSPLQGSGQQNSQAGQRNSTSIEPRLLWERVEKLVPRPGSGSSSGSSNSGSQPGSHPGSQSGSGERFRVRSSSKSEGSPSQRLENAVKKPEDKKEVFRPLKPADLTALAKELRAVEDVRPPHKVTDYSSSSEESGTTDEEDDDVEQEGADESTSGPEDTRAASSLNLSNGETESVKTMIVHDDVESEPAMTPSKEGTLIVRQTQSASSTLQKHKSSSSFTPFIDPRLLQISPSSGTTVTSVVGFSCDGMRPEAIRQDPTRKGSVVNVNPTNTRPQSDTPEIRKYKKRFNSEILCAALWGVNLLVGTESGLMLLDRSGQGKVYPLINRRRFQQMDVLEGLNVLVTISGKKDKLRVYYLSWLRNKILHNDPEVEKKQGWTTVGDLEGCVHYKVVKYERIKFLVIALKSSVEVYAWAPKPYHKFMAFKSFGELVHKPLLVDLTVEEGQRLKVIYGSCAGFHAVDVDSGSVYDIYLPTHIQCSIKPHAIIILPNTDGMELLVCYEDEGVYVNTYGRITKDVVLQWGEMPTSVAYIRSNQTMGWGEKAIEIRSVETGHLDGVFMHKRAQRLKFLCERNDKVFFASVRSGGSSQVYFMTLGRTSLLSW
Summary of the method: as §1

PAG1 = target: T1, PAG1 (Homo sapiens, UniProt Q9NWQ8)
T1 sequence (Q9NWQ8 1-432): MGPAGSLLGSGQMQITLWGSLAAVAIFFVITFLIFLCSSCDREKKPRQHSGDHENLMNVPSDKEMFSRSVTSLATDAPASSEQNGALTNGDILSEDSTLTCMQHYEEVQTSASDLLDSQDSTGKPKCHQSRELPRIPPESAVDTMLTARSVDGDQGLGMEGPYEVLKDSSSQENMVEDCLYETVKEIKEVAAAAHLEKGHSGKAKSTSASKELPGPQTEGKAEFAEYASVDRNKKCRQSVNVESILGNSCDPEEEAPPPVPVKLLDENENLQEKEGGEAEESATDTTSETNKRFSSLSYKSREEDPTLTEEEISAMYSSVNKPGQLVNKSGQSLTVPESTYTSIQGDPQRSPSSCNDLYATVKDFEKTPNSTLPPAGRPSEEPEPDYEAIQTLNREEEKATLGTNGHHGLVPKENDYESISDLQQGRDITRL
Summary of the method: as §1

HSPA4 = HSPA4 (Homo sapiens, UniProt P34932)
Sequence of HSPA4 (P34932 whole entry): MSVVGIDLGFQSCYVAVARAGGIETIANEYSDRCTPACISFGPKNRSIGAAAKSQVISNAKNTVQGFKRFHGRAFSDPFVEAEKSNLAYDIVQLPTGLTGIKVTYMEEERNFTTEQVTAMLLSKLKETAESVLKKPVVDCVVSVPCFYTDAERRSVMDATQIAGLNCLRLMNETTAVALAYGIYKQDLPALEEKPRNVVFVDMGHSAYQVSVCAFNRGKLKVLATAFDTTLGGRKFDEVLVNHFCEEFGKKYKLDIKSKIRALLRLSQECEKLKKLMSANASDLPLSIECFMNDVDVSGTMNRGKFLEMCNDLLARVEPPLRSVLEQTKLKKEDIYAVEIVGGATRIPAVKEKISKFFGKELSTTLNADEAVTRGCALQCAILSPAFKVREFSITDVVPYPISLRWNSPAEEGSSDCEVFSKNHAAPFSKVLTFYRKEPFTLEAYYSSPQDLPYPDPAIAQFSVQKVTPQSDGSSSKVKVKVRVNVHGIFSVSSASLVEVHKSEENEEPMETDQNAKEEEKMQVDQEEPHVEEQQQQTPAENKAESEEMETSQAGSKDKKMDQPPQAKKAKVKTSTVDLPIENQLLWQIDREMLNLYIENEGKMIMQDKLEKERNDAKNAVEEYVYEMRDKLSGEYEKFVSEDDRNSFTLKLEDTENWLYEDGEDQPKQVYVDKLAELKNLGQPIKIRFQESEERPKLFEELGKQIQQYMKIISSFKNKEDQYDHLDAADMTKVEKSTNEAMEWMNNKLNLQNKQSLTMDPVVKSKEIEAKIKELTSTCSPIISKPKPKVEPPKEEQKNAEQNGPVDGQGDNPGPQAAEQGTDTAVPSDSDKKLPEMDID
Summary of the method: as §1

TCP1 = TCP1 (Homo sapiens, UniProt P17987)
Summary of the method: as §1

TPM4 = TPM4 (Homo sapiens, UniProt P67936)
Summary of the method: as §1

MINK1 = MINK1 (Homo sapiens, UniProt Q8N4C8)
Sequence of MINK1 (Q8N4C8 whole entry): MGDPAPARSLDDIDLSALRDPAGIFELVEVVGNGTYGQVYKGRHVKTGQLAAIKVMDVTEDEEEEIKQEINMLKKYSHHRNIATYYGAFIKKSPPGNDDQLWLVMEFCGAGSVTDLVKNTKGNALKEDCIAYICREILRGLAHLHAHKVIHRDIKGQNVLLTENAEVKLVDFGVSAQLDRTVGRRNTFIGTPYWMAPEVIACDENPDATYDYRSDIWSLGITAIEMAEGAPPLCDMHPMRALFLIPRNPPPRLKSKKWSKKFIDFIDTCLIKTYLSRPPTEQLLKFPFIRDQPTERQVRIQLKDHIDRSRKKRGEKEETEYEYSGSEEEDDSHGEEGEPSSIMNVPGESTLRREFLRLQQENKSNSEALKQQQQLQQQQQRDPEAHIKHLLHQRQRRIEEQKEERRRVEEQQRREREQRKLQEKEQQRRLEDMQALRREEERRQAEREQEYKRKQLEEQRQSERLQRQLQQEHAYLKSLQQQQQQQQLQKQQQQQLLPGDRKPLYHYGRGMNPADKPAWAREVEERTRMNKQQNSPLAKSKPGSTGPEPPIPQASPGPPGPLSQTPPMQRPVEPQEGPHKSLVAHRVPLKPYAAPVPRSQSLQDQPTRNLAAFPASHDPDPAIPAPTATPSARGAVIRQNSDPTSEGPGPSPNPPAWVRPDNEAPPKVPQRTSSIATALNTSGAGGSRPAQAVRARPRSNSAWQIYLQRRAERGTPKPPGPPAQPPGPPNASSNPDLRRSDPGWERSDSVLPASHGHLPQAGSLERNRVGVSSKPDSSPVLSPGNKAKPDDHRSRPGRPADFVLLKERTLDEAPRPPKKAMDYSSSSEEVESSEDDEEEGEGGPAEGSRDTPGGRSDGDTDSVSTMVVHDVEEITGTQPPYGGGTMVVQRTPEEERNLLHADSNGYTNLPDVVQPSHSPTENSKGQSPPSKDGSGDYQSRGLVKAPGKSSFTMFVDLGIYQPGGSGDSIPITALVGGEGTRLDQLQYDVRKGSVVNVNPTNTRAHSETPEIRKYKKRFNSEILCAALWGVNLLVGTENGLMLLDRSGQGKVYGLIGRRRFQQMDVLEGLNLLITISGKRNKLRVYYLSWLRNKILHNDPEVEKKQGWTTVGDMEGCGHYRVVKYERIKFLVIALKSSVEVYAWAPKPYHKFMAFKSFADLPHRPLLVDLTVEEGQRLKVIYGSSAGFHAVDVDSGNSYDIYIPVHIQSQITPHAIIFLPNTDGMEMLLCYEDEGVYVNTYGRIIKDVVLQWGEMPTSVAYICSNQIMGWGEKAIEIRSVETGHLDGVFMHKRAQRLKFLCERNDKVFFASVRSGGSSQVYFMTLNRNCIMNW
Summary of the method: as §1

PTK2B = PTK2B (Homo sapiens, UniProt Q14289)
Sequence of PTK2B (Q14289 whole entry): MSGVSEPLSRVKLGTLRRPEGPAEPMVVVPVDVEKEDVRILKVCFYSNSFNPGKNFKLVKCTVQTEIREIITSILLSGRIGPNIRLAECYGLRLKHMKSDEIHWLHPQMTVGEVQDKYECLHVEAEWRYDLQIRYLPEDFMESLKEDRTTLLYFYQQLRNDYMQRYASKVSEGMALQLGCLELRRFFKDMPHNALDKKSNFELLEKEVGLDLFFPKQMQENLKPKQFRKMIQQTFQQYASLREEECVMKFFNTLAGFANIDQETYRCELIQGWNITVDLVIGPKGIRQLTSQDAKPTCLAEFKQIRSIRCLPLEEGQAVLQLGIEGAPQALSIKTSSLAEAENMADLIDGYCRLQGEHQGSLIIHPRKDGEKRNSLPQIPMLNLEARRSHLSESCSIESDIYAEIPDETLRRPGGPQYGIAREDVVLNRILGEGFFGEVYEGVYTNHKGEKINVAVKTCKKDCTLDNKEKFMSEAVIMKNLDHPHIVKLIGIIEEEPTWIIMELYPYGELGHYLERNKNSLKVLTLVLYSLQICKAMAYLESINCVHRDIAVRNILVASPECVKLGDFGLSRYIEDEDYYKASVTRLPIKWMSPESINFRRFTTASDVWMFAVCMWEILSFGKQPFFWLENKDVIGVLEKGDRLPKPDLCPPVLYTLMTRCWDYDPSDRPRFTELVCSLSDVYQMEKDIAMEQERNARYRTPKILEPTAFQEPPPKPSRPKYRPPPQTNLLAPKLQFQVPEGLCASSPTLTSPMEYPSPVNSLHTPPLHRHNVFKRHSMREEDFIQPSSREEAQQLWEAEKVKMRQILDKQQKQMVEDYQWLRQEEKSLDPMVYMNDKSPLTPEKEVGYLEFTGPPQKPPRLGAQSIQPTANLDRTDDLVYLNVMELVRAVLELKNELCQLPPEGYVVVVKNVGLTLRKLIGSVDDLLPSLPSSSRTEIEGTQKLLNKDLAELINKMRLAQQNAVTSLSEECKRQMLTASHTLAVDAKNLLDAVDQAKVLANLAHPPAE
Summary of the method: as §1

YWHAZ = target: T2, YWHAZ (Homo sapiens, UniProt P63104)
T2 sequence (P63104 1-245): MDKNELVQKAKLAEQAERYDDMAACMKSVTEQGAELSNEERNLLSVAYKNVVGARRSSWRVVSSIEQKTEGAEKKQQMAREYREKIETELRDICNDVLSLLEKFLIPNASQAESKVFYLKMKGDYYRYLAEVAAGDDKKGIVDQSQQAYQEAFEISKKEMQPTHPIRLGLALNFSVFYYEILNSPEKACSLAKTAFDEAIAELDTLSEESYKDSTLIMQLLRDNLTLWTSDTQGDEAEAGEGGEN
Summary of the method: as §1

RAF1 = RAF1 (Homo sapiens, UniProt P04049)
Sequence of RAF1 (P04049 whole entry): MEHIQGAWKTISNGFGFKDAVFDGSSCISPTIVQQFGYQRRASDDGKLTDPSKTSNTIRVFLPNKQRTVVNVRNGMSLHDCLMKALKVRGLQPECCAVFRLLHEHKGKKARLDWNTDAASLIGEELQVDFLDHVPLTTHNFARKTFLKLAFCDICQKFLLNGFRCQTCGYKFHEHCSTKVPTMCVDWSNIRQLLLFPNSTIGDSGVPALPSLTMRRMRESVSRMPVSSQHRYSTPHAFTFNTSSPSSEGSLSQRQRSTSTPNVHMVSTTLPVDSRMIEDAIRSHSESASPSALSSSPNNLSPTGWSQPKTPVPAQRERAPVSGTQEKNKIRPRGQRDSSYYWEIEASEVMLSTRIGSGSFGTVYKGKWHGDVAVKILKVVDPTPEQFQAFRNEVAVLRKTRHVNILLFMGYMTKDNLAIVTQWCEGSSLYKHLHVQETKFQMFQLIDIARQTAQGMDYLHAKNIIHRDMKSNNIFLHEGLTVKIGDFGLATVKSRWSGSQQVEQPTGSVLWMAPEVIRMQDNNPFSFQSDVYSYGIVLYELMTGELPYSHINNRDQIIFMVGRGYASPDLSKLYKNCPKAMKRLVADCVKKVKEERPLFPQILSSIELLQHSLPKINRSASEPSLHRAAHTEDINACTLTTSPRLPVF
Summary of the method: as §1

Structure (SMILES): Cc1ccc(C(=O)Nc2ccc(CN3CCN(CCCN)CC3)c(C(F)(F)F)c2)cc1C#Cc1cnc2cccnn12 [c-ponatinib]
- Av. SC comp. (ABL1; + free ponatinib): 0
- Total SC comp. (ABL1; + free ponatinib): 0
- Av. SC (ABL1; no competitor): 13.75
- Total SC (ABL1; no competitor): 55
- Av. SC comp. (MAP4K4; + free ponatinib): 10.75
- Total SC comp. (MAP4K4; + free ponatinib): 43
- Av. SC (MAP4K4; no competitor): 54.5
- Total SC (MAP4K4; no competitor): 218
- Av. SC comp. (PAG1; + free ponatinib): 0
- Total SC comp. (PAG1; + free ponatinib): 0
- Av. SC (PAG1; no competitor): 2
- Total SC (PAG1; no competitor): 8
- Av. SC comp. (HSPA4; + free ponatinib): 1.75
- Total SC comp. (HSPA4; + free ponatinib): 7
- Av. SC (HSPA4; no competitor): 5.5
- Total SC (HSPA4; no competitor): 22
- Av. SC comp. (TCP1; + free ponatinib): 1.5
- Total SC comp. (TCP1; + free ponatinib): 6
- Av. SC (TCP1; no competitor): 5
- Total SC (TCP1; no competitor): 20
- Av. SC comp. (TPM4; + free ponatinib): 0.25
- Total SC comp. (TPM4; + free ponatinib): 1
- Av. SC (TPM4; no competitor): 3.5
- Total SC (TPM4; no competitor): 14
- Av. SC comp. (MINK1; + free ponatinib): 0
- Total SC comp. (MINK1; + free ponatinib): 0
- Av. SC (MINK1; no competitor): 4
- Total SC (MINK1; no competitor): 16
- Av. SC comp. (PTK2B; + free ponatinib): 0
- Total SC comp. (PTK2B; + free ponatinib): 0
- Av. SC (PTK2B; no competitor): 32.5
- Total SC (PTK2B; no competitor): 130
- Av. SC comp. (YWHAZ; + free ponatinib): 2.5
- Total SC comp. (YWHAZ; + free ponatinib): 10
- Av. SC (YWHAZ; no competitor): 10.5
- Total SC (YWHAZ; no competitor): 42
- Av. SC comp. (RAF1; + free ponatinib): 0
- Total SC comp. (RAF1; + free ponatinib): 0
- Av. SC (RAF1; no competitor): 1.25
- Total SC (RAF1; no competitor): 5
